Measurements from US8278072B1, “Method for synthesis of sialylated products using reversible sialylation” (Health Research, Inc., priority 2007, dated 2012).

Target: T1, ST3Gal-II (Rattus norvegicus, UniProt Q11205)
T1 construct: purchased Calbiochem
T1 sequence (Q11205 1-350): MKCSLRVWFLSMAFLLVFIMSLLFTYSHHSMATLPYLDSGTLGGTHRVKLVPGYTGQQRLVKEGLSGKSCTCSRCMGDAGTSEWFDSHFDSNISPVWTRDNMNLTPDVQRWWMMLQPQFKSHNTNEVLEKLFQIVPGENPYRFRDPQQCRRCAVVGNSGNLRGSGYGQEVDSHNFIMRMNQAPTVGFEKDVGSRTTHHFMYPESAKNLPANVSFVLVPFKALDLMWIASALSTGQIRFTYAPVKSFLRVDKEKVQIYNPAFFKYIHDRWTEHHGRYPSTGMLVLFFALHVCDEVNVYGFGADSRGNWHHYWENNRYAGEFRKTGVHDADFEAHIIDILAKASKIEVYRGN
Assay: Reverse sialylation: transfer of [9-3H]NeuAc from sialylated donor to nucleotide phosphates (WGA-agarose)
Type: biochemical
Details: donor [1]; for Incorporation of [9-3H]NeuAc expressed as percent of the CPM incorporated into 5′-CMP: nucleotide phosphate 1 mM as acceptor
Experimental: FIG. 1. Nucleotide phosphates as acceptors of radioactivity from [9-^3H]NeuAcα2,3Galβ,13 (GlcNAcβ1,6)GalNAcα-O—Al (Al=Allyl) [[9-^3H] [1]] in the presence of ST3Gal-II (scheme-I). Reaction mixtures (RM) with the following composition were incubated at 37° C. for 21 hours in 100 mM NaCa Codylate buffer, pH6.0: i) RM containing 150 μM (0.4 μCi) [[9-^3H] [1]] (donor) along with 0.8 mU ST3Gal-II but no 5″-CMP; and, ii) RM containing [[9-^3H] [1]] and 1.0 mM 5′-CMP, along with ST3Gal-II. Products formed were fractionated on a WGA-agarose column. […] The feasibility of the reverse reaction is well established in literature. Schematic symbols: ♦:sialic acid, ●:Gal, □:GalNAc, ▪:GlcNAc.
All enzymatic sialylation reactions were typically carried out in 100 mM NaCa Codylate buffer pH6.0 in the presence of enzyme, synthetic acceptor (at 7.5 mM or as indicated in each experiment) and 0.2 μCi CMP-[9-^3H]NeuAc (NEN-Dupont, 29 mCi/μmol). The concentration of total CMP-NeuAc was adjusted in individual reactions by supplementing with additional cold CMP-NeuAc. Reaction volume was 20 μl. Products formed were separated using four different chromatography procedures (below). In all cases, the radioactive content of isolated products was determined by using 3a70 scintillation cocktail (Research Products International, Mount Prospect, Ill.), and a Beckman LS6500 scintillation counter.
a) Biogel P2 chromatography: A Biogel P2 column (Fine Mesh; 1.0×116.0 cm) was used with 0.1 M pyridine acetate (pH5.4) as the eluent at room temperature. […] Fractions of 1.0 ml were collected. The bound material was then eluted with 0.5M GlcNAc or 0.2M Gal in the same buffer. […] Calculation of equilibrium constant, Keq: Equilibrium constant was calculated for selected reversible bimolecular reactions that are denoted by:
Cloned and purified rat sialyltransferase α2,3(O)ST (ST3Gal-II) is used in many experiments presented in this manuscript. […] In order to determine if the sialylation reaction is reversible (FIG. 1), [9-^3H]NeuAcα2,3Galβ,13(GlcNAcβ1,6)GalNAcα-O—Al (Al=Allyl) [9-^3H[1]] was prepared using ST3Gal-II in the presence of CMP-[9-^3H]NeuAc and the trisaccharide acceptor Galβ1,3(GlcNAcβ1,6)GalNAcα-O—Al, and the radiolabeled product was isolated using Biogel P2 chromatography. […] Two different reaction mixtures were then prepared with: i) [9-^3H[1]] and ST3Gal-II but without 5″-CMP; and ii) [9-^3H[1]] and 5″-CMP along with ST3Gal-II.

| Incorporation of [9-3H]NeuAc expressed as percent of the CPM incorporated into 5′-CMP | Incorporation of [9-3H]NeuAc (1 mM nucleotide phosphate) | SMILES |
| --- | --- | --- |
| 28.4% |  | Nc1ccn([C@@H]2O[C@H](COP(=O)(O)OP(=O)(O)O)[C@@H](O)[C@H]2O)c(=O)n1 [5′-CDP] |
| 100.0% | (44197 CPM) | Nc1ccn([C@@H]2O[C@H](COP(=O)(O)O)[C@@H](O)[C@H]2O)c(=O)n1 [5′-CMP, Cytidine 5′-monophosphate] |
